Assay results published in ChEMBL document CHEMBL1146125, “Ultra-potent P1 modified arylsulfonamide HIV protease inhibitors: the discovery of GW0385” (Bioorg Med Chem Lett, 2006).

Tests used:
MT4 [1] = experiment: Antiviral activity against HIV1 EP13 in MT4 cells; assay type: functional, cell-based; conditions: Homo sapiens
MT4 [2] = experiment: Antiviral activity against HIV D545701 in MT4 cells; assay type: functional, cell-based; conditions: Homo sapiens
MT4 [3] = experiment: Antiviral activity against HIV1 HXB2 in MT4 cells; assay type: functional, cell-based; conditions: Homo sapiens
[4] = Oral bioavailability in rat at 1 mg/kg; assay type: ADME, organism-based; conditions: in vivo
[5] = Clearance in rat at 1 mg/kg, iv; assay type: ADME, organism-based; design: dose 1 mg/kg, route intravenous; conditions: in vivo
[6] = Half life in rat at 1 mg/kg; assay type: ADME, organism-based; design: dose 1 mg/kg; conditions: in vivo
[7] = Half life in dog at 1 mg/kg; assay type: ADME, organism-based, Canis lupus familiaris; design: dose 1 mg/kg; conditions: in vivo
[8] = Oral bioavailability in dog at 1 mg/kg; assay type: ADME, organism-based, Canis lupus familiaris; conditions: in vivo
[9] = Clearance in dog at 1 mg/kg, iv; assay type: ADME, organism-based, Canis lupus familiaris; design: dose 1 mg/kg, route intravenous; conditions: in vivo
MT4 [10] = experiment: Antiviral activity against multi PI resistant HIV1 EP14 in MT4 cells; assay type: functional, cell-based; conditions: Homo sapiens
[11] = Bioavailability in dog at 1 mg/kg co-administered with 4 mg/kg ritonavir; assay type: ADME, organism-based, Canis lupus familiaris; conditions: in vivo
MT4 [12] = experiment: Antiviral activity against nelfinavir resistant HIV1 14330 in MT4 cells; assay type: functional, cell-based; conditions: Homo sapiens
[13] = Bioavailability in rat at 1 mg/kg co-administered with 4 mg/kg ritonavir; assay type: ADME, organism-based; conditions: in vivo
MT4 [14] = experiment: Antiviral activity against HIV1 I54V in MT4 cells; assay type: functional, cell-based; conditions: Homo sapiens
MT4 [15] = experiment: Antiviral activity against triple multi PI resistant HIV1 in MT4 cells; assay type: functional, cell-based; conditions: Homo sapiens
MT4 [16] = experiment: Antiviral activity against multi PI resistant HIV1 31246 in MT4 cells; assay type: functional, cell-based; conditions: Homo sapiens
[17] = Half life in dog at 1 mg/kg co-administered with 4 mg/kg ritonavir; assay type: ADME, organism-based, Canis lupus familiaris; conditions: in vivo
MT4 [18] = experiment: Antiviral activity against indinavir resistant HIV1 30813 in MT4 cells; assay type: functional, cell-based; conditions: Homo sapiens
[19] = Half life in rat at 1 mg/kg co-administered with 4 mg/kg ritonavir; assay type: ADME, organism-based; conditions: in vivo
MT4 [20] = experiment: Antiviral activity against HIV1 I50V in MT4 cells; assay type: functional, cell-based; conditions: Homo sapiens
MT4 [21] = experiment: Antiviral activity against amprenavir resistant HIV1 468 in MT4 cells; assay type: functional, cell-based; conditions: Homo sapiens

Row | SMILES | IC50 (MT4 [1]) | IC50 (MT4 [2]) | IC50 (MT4 [3]) | also measured
1 | CC(C)(C)NC(=O)[C@@H]1C[C@@H]2CCCC[C@@H]2CN1C[C@@H](O)[C@H](Cc1ccccc1)NC(=O)[C@H](CC(N)=O)NC(=O)c1ccc2ccccc2n1 | 80 nM | 603 nM | 60 nM | –
2 | CC(C)CN(C[C@@H](O)[C@H](Cc1ccccc1)NC(=O)O[C@H]1CCOC1)S(=O)(=O)c1ccc(N)cc1 | – | > 1000 nM | – | –
3 | CC(C)CN(C[C@@H](O)[C@H](Cc1ccccc1)NC(=O)O[C@H]1CO[C@H]2OCC[C@H]21)S(=O)(=O)c1ccc(N)cc1 | 6.8 nM | 32 nM | 3.9 nM | –
4 | COC(=O)NCc1ccc(Oc2ccc(C[C@H](NC(=O)O[C@H]3CO[C@H]4OCC[C@H]43)[C@H](O)CN(CC(C)C)S(=O)(=O)c3ccc4c(c3)OCO4)cc2)cc1 | 2.2 nM | 6.8 nM | 1.3 nM | –
5 | CC(C)CN(C[C@@H](O)[C@H](Cc1ccc(OCc2ccc3ccccc3c2)cc1)NC(=O)O[C@H]1CO[C@H]2OCC[C@H]21)S(=O)(=O)c1ccc2c(c1)OCO2 | 30 nM | 59 nM | 11 nM | –
6 | COc1cccc(Oc2ccc(C[C@H](NC(=O)O[C@H]3CO[C@H]4OCC[C@H]43)[C@H](O)CN(CC(C)C)S(=O)(=O)c3ccc4c(c3)OCO4)cc2)c1 | 16 nM | 41 nM | 4.7 nM | –
7 | CC(C)CN(C[C@@H](O)[C@H](Cc1ccc(Oc2ccncn2)cc1)NC(=O)O[C@H]1CO[C@H]2OCC[C@H]21)S(=O)(=O)c1ccc2c(c1)OCO2 | 2.8 nM | 11 nM | 2 nM | –
8 | CC(C)CN(C[C@@H](O)[C@H](Cc1ccc(Oc2cccnc2)cc1)NC(=O)O[C@H]1CO[C@H]2OCC[C@H]21)S(=O)(=O)c1ccc2c(c1)OCO2 | 2.4 nM | 9.5 nM | 1.1 nM | –
9 | CC(=O)NCc1ccc(Oc2ccc(C[C@H](NC(=O)O[C@H]3CO[C@H]4OCC[C@H]43)[C@H](O)CN(CC(C)C)S(=O)(=O)c3ccc4c(c3)OCO4)cc2)cc1 | 3.4 nM | 6.3 nM | 6.2 nM | –
10 | CC(C)CN(C[C@@H](O)[C@H](Cc1ccc(OCc2ncc[nH]2)cc1)NC(=O)O[C@H]1CO[C@H]2OCC[C@H]21)S(=O)(=O)c1ccc2c(c1)OCO2 | 20 nM | 16 nM | 69 nM | –
11 | CC(C)CN(C[C@@H](O)[C@H](Cc1ccc(Oc2ccc(CN3CCOCC3)cc2)cc1)NC(=O)O[C@H]1CO[C@H]2OCC[C@H]21)S(=O)(=O)c1ccc2c(c1)OCO2 | 2.9 nM | 13 nM | 1.2 nM | –
12 | CC(C)CN(C[C@@H](O)[C@H](Cc1ccc(OCCc2ccccc2)cc1)NC(=O)O[C@H]1CO[C@H]2OCC[C@H]21)S(=O)(=O)c1ccc2c(c1)OCO2 | 8.7 nM | 25 nM | 3.7 nM | –
13 | CC(C)CN(C[C@@H](O)[C@H](Cc1ccc(OCCc2ccsc2)cc1)NC(=O)O[C@H]1CO[C@H]2OCC[C@H]21)S(=O)(=O)c1ccc2c(c1)OCO2 | 17 nM | 44 nM | 9.5 nM | –
14 | CC(C)CN(C[C@@H](O)[C@H](Cc1ccc(OCc2nccs2)cc1)NC(=O)O[C@H]1CO[C@H]2OCC[C@H]21)S(=O)(=O)c1ccc2c(c1)OCO2 | 1.5 nM | 5.1 nM | 0.9 nM | –
15 | CC(C)CN(C[C@@H](O)[C@H](Cc1ccc(Oc2ccc(CNS(C)(=O)=O)cc2)cc1)NC(=O)O[C@H]1CO[C@H]2OCC[C@H]21)S(=O)(=O)c1ccc2c(c1)OCO2 | 5.3 nM | 11 nM | 7.2 nM | –
16 | CC(C)CN(C[C@@H](O)[C@H](Cc1ccc(OCc2ccccn2)cc1)NC(=O)O[C@H]1CO[C@H]2OCC[C@H]21)S(=O)(=O)c1ccc2c(c1)OCO2 | 1.2 nM | 4.5 nM | 1.2 nM | bioavailability [4]: 21%; clearance [5]: 1.2 L/h/kg; half-life [6]: 0.91 h
17 | CC(C)CN(C[C@@H](O)[C@H](Cc1ccc(Oc2ccc(CN3CCCC3)cc2)cc1)NC(=O)O[C@H]1CO[C@H]2OCC[C@H]21)S(=O)(=O)c1ccc2c(c1)OCO2 | 4.6 nM | 19 nM | 2.8 nM | –

Row | SMILES | IC50 (MT4 [1]) | IC50 (MT4 [2]) | IC50 (MT4 [3]) | also measured
18 | CC(C)CN(C[C@@H](O)[C@H](Cc1ccc(OCCc2cccs2)cc1)NC(=O)O[C@H]1CO[C@H]2OCC[C@H]21)S(=O)(=O)c1ccc2c(c1)OCO2 | 3.4 nM | 11 nM | 2.3 nM | half-life [7]: 0.5 h; bioavailability [8]: 18%; clearance [9]: 1.32 L/h/kg; bioavailability [4]: 15%; clearance [5]: 1.62 L/h/kg; half-life [6]: 2.2 h
19 | CC(C)CN(C[C@@H](O)[C@H](Cc1ccc(OCc2ccccc2)cc1)NC(=O)O[C@H]1CO[C@H]2OCC[C@H]21)S(=O)(=O)c1ccc2c(c1)OCO2 | 5.9 nM | 9.6 nM | 3.1 nM | –
20 | CC(C)CN(C[C@@H](O)[C@H](Cc1ccc(OCc2ccc3ccccc3n2)cc1)NC(=O)O[C@H]1CO[C@H]2OCC[C@H]21)S(=O)(=O)c1ccc2c(c1)OCO2 | 5.2 nM | 19 nM | 2.5 nM | –
21 | CC(C)CN(C[C@@H](O)[C@H](Cc1ccc(OCCn2cncn2)cc1)NC(=O)O[C@H]1CO[C@H]2OCC[C@H]21)S(=O)(=O)c1ccc2c(c1)OCO2 | 8.3 nM | 12 nM | 21 nM | –
22 | CC(C)CN(C[C@@H](O)[C@H](Cc1ccc(OCc2cncs2)cc1)NC(=O)O[C@H]1CO[C@H]2OCC[C@H]21)S(=O)(=O)c1ccc2c(c1)OCO2 | 2.5 nM | 6.5 nM | 1.9 nM | –
23 | CC(C)CN(C[C@@H](O)[C@H](Cc1ccc(Oc2ccc(F)cc2)cc1)NC(=O)O[C@H]1CO[C@H]2OCC[C@H]21)S(=O)(=O)c1ccc2c(c1)OCO2 | 8.1 nM | 29 nM | 3.3 nM | –
24 | CC(C)CN(C[C@@H](O)[C@H](Cc1ccc(OCc2cccc(C#N)c2)cc1)NC(=O)O[C@H]1CO[C@H]2OCC[C@H]21)S(=O)(=O)c1ccc2c(c1)OCO2 | 2.2 nM | 2.2 nM | 1.2 nM | –
25 | CC(C)CN(C[C@@H](O)[C@H](Cc1ccc(Oc2ccc(CO)cc2)cc1)NC(=O)O[C@H]1CO[C@H]2OCC[C@H]21)S(=O)(=O)c1ccc2c(c1)OCO2 | 1.6 nM | 8.4 nM | 1.6 nM | –
26 | CC(C)CN(C[C@@H](O)[C@H](Cc1ccc(Oc2ccccc2)cc1)NC(=O)O[C@H]1CO[C@H]2OCC[C@H]21)S(=O)(=O)c1ccc2c(c1)OCO2 | 21 nM | 62 nM | 7.5 nM | –
27 | CC(C)CN(C[C@@H](O)[C@H](Cc1ccc(Oc2cccc(F)c2)cc1)NC(=O)O[C@H]1CO[C@H]2OCC[C@H]21)S(=O)(=O)c1ccc2c(c1)OCO2 | 17 nM | 48 nM | 5.7 nM | –
28 | COc1ccc(Oc2ccc(C[C@H](NC(=O)O[C@H]3CO[C@H]4OCC[C@H]43)[C@H](O)CN(CC(C)C)S(=O)(=O)c3ccc4c(c3)OCO4)cc2)cc1 | 6.9 nM | 27 nM | 2.1 nM | –
29 | CC(C)CN(C[C@@H](O)[C@H](Cc1ccc(OCc2cscn2)cc1)NC(=O)O[C@H]1CO[C@H]2OCC[C@H]21)S(=O)(=O)c1ccc2c(c1)OCO2 | 1.2 nM | 3.5 nM | 0.6 nM | –
30 | Cc1c(O)cccc1C(=O)N[C@@H](CSc1ccccc1)[C@H](O)CN1C[C@H]2CCCC[C@H]2C[C@H]1C(=O)NC(C)(C)C | – | > 1000 nM | – | –
31 | COC(=O)N[C@H](C(=O)N[C@@H](Cc1ccccc1)[C@@H](O)CN(Cc1ccc(-c2ccccn2)cc1)NC(=O)[C@@H](NC(=O)OC)C(C)(C)C)C(C)(C)C [ATAZANAVIR] | 93 nM | 70 nM | 25 nM | –
32 | Cc1nc(COc2ccc(C[C@H](NC(=O)O[C@H]3CO[C@H]4OCC[C@H]43)[C@H](O)CN(CC(C)C)S(=O)(=O)c3ccc4c(c3)OCO4)cc2)cs1 [BRECANAVIR] | 1.1 nM | – | – | IC50 (MT4 [10]): 0.77 nM; half-life [7]: 0.87 h; bioavailability [11]: 86%; IC50 (MT4 [12]): 0.45 nM; bioavailability [8]: 20%; bioavailability [13]: 62%; IC50 (MT4 [14]): 0.22 nM; IC50 (MT4 [15]): 5.4 nM; clearance [9]: 1.14 L/h/kg; IC50 (MT4 [16]): 1.7 nM; bioavailability [4]: 10%; half-life [17]: 1.2 h; IC50 (MT4 [18]): 0.46 nM; half-life [19]: 1.1 h; IC50 (MT4 [20]): 1.6 nM; clearance [5]: 0.6 L/h/kg; IC50 (MT4 [21]): 8.2 nM; half-life [6]: 1.4 h
33 | Cc1cccc(C)c1OCC(=O)N[C@@H](Cc1ccccc1)[C@@H](O)C[C@H](Cc1ccccc1)NC(=O)[C@H](C(C)C)N1CCCNC1=O [LOPINAVIR] | 400 nM | > 1000 nM | 40 nM | –
34 | CC(C)c1nc(CN(C)C(=O)N[C@H](C(=O)N[C@@H](Cc2ccccc2)C[C@H](O)[C@H](Cc2ccccc2)NC(=O)OCc2cncs2)C(C)C)cs1 [RITONAVIR] | > 1000 nM | > 1000 nM | 268 nM | –
